In brackets after ≈: the same amount, converted by molar mass.
Key:
Format in all cases: functional
[1] = test system: Staphylococcus epidermidis; assay: Antibacterial activity against methicillin-sensitive Staphylococcus epidermidis 16-4 assessed as inhibition of bacterial growth by CLSI based micro broth double dilution method
[2] = test system: Klebsiella pneumoniae; assay: Antibacterial activity against ESBL negative Klebsiella pneumoniae 16-2 assessed as inhibition of bacterial growth by CLSI based micro broth double dilution method
[3] = test system: Klebsiella pneumoniae; assay: Antibacterial activity against ESBL positive Klebsiella pneumoniae ATCC 700603 assessed as inhibition of bacterial growth by CLSI based micro broth double dilution method
[4] = test system: Escherichia coli; assay: Antibacterial activity against ESBL-negative Escherichia coli ATCC 25922 assessed as inhibition of bacterial growth by CLSI based micro broth double dilution method
[5] = test system: Staphylococcus aureus; assay: Antibacterial activity against methicillin-sensitive Staphylococcus aureus 15 assessed as inhibition of bacterial growth by CLSI based micro broth double dilution method
[6] = test system: Klebsiella pneumoniae; assay: Antibacterial activity against ESBL negative Klebsiella pneumoniae 7 assessed as inhibition of bacterial growth by CLSI based micro broth double dilution method
[7] = test system: Enterococcus faecalis; assay: Antibacterial activity against vancomycin-resistant Enterococcus faecalis ATCC 51575 assessed as inhibition of bacterial growth by CLSI based micro broth double dilution method
[8] = test system: Enterococcus faecalis; assay: Antibacterial activity against vancomycin-sensitive Enterococcus faecalis […] assessed as inhibition of bacterial growth by CLSI based micro broth double dilution method
[9] = test system: Streptococcus pneumoniae; assay: Antibacterial activity against erythromycin-resistant Streptococcus pneumoniae 12-3 assessed as inhibition of bacterial growth by CLSI based micro broth double dilution method
[10] = test system: Streptococcus pyogenes; assay: Antibacterial activity against erythromycin-resistant Streptococcus pyogenes 12-1 assessed as inhibition of bacterial growth by CLSI based micro broth double dilution method
[11] = test system: Escherichia coli; assay: Antibacterial activity against Escherichia coli 16-7 assessed as inhibition of bacterial growth by CLSI based micro broth double dilution method
[12] = test system: Streptococcus pyogenes; assay: Antibacterial activity against erythromycin-sensitive Streptococcus pyogenes ATCC 19615 assessed as inhibition of bacterial growth by CLSI based micro broth double dilution method
[13] = test system: Staphylococcus aureus; assay: Antibacterial activity against methicillin-sensitive Staphylococcus aureus 16-1 assessed as inhibition of bacterial growth by CLSI based micro broth double dilution method
[14] = test system: Streptococcus pneumoniae; assay: Potency index, ratio of telithromycin MIC to test compound MIC for antibacterial activity against erythromycin-resistant Streptococcus pneumoniae 12-3 assessed as inhibition of bacterial growth by CLSI based micro broth double dilution method
[15] = test system: Pseudomonas aeruginosa; assay: Antibacterial activity against Pseudomonas aeruginosa ATCC 27853 assessed as inhibition of bacterial growth by CLSI based micro broth double dilution method
[16] = test system: Streptococcus pyogenes; assay: Potency index, ratio of telithromycin MIC to test compound MIC for antibacterial activity against erythromycin-resistant Streptococcus pyogenes 12-1 assessed as inhibition of bacterial growth by CLSI based micro broth double dilution method
[17] = test system: Streptococcus pneumoniae; assay: Antibacterial activity against erythromycin-sensitive Streptococcus pneumoniae ATCC 49619 assessed as inhibition of bacterial growth by CLSI based micro broth double dilution method
[18] = test system: Pseudomonas aeruginosa; assay: Antibacterial activity against Pseudomonas aeruginosa PAO1 assessed as inhibition of bacterial growth by CLSI based micro broth double dilution method
[19] = test system: Staphylococcus epidermidis; assay: Antibacterial activity against methicillin-sensitive Staphylococcus epidermidis ATCC 12228 assessed as inhibition of bacterial growth by CLSI based micro broth double dilution method
[20] = test system: Staphylococcus aureus; assay: Antibacterial activity against methicillin-sensitive Staphylococcus aureus ATCC 29213 assessed as inhibition of bacterial growth by CLSI based micro broth double dilution method
[21] = test system: Enterococcus faecalis; assay: Antibacterial activity against vancomycin-resistant Enterococcus faecalis ATCC 51299 assessed as inhibition of bacterial growth by CLSI based micro broth double dilution method
[22] = test system: Pseudomonas aeruginosa; assay: Antibacterial activity against Pseudomonas aeruginosa 16-11 assessed as inhibition of bacterial growth by CLSI based micro broth double dilution method
[23] = test system: Escherichia coli; assay: Antibacterial activity against ESBL-positive Escherichia coli ATCC 35218 assessed as inhibition of bacterial growth by CLSI based micro broth double dilution method
[24] = test system: Enterococcus faecalis; assay: Antibacterial activity against vancomycin-sensitive Enterococcus faecalis 16-6 assessed as inhibition of bacterial growth by CLSI based micro broth double dilution method

Compound	MIC [1]	MIC [2]	MIC [3]	MIC [4]	MIC [5]	MIC [6]	MIC [7]	MIC [8]	MIC [9]	MIC [10]	MIC [11]	MIC [12]	MIC [13]	MIC [15]	MIC [17]	MIC [18]	MIC [19]	MIC [20]	MIC [21]	MIC [22]	also measured
CCCCN(CCCN1C(=O)O[C@]2(C)[C@@H](CC)OC(=O)[C@@](C)(F)C(=O)[C@H](C)[C@@H](O[C@@H]3O[C@H](C)C[C@H](N(C)C)[C@H]3O)[C@@](C)(OC)C[C@@H](C)C(=O)[C@H](C)[C@@H]12)c1ccnc2ccccc12	0.25 µg/mL (≈ 0.287 µM)	> 32 µg/mL	32 µg/mL (≈ 36.7 µM)	32 µg/mL (≈ 36.7 µM)	0.06 µg/mL (≈ 0.0689 µM)	> 32 µg/mL	1 µg/mL (≈ 1.15 µM)	0.03 µg/mL (≈ 0.0344 µM)	≤ 0.016 µg/mL	2 µg/mL (≈ 2.3 µM)	32 µg/mL (≈ 36.7 µM)	0.015 µg/mL (≈ 0.0172 µM)	0.12 µg/mL (≈ 0.138 µM)	32 µg/mL (≈ 36.7 µM)	≤ 0.016 µg/mL	16 µg/mL (≈ 18.4 µM)	0.12 µg/mL (≈ 0.138 µM)	1 µg/mL (≈ 1.15 µM)	1 µg/mL (≈ 1.15 µM)	16 µg/mL (≈ 18.4 µM)	Ratio [14]: 4; Ratio [16]: 32; MIC [23]: 32 µg/mL (≈ 36.7 µM); MIC [24]: 2 µg/mL (≈ 2.3 µM)
CC[C@H]1OC(=O)[C@H](C)[C@@H](O[C@H]2C[C@@](C)(OC)[C@@H](O)[C@H](C)O2)[C@H](C)[C@@H](O[C@@H]2O[C@H](C)C[C@H](N(C)C)[C@H]2O)[C@](C)(OC)C[C@@H](C)C(=O)[C@H](C)[C@@H](O)[C@]1(C)O [CLARITHROMYCIN]	64 µg/mL (≈ 85.6 µM)	> 64 µg/mL	> 64 µg/mL	32 µg/mL (≈ 42.8 µM)	0.25 µg/mL (≈ 0.334 µM)	> 64 µg/mL	> 64 µg/mL	2 µg/mL (≈ 2.67 µM)	> 32 µg/mL	64 µg/mL (≈ 85.6 µM)	> 64 µg/mL	0.03 µg/mL (≈ 0.0401 µM)	0.25 µg/mL (≈ 0.334 µM)	> 64 µg/mL	0.12 µg/mL (≈ 0.16 µM)	> 64 µg/mL	0.12 µg/mL (≈ 0.16 µM)	0.25 µg/mL (≈ 0.334 µM)	> 64 µg/mL	> 64 µg/mL	MIC [23]: > 64 µg/mL; MIC [24]: > 64 µg/mL
CC[C@H]1OC(=O)[C@H](C)C(=O)[C@H](C)[C@@H](O[C@@H]2O[C@H](C)C[C@H](N(C)C)[C@H]2O)[C@](C)(OC)C[C@@H](C)C(=O)[C@H](C)[C@H]2N(CCCCn3cnc(-c4cccnc4)c3)C(=O)O[C@]12C [TELITHROMYCIN]	1 µg/mL (≈ 1.23 µM)	> 64 µg/mL	> 64 µg/mL	64 µg/mL (≈ 78.8 µM)	0.25 µg/mL (≈ 0.308 µM)	> 64 µg/mL	16 µg/mL (≈ 19.7 µM)	0.12 µg/mL (≈ 0.148 µM)	0.06 µg/mL (≈ 0.0739 µM)	64 µg/mL (≈ 78.8 µM)	> 64 µg/mL	0.06 µg/mL (≈ 0.0739 µM)	0.25 µg/mL (≈ 0.308 µM)	> 64 µg/mL	0.03 µg/mL (≈ 0.0369 µM)	> 64 µg/mL	0.25 µg/mL (≈ 0.308 µM)	0.25 µg/mL (≈ 0.308 µM)	16 µg/mL (≈ 19.7 µM)	> 64 µg/mL	MIC [23]: > 64 µg/mL; MIC [24]: 16 µg/mL (≈ 19.7 µM)
